The term EC50 denotes the midpoint of the concentration-response curve. Low readings indicate a more potent agent, high ones a less potent agent.

In the assay the target is FXR (Homo sapiens (Human), UniProt Q96RI1). The assay is described as follows: FXR EC50 (FXR agonist activity reported with each example). In kind it is cell-based.
Sequence of FXR (Q96RI1 262-486): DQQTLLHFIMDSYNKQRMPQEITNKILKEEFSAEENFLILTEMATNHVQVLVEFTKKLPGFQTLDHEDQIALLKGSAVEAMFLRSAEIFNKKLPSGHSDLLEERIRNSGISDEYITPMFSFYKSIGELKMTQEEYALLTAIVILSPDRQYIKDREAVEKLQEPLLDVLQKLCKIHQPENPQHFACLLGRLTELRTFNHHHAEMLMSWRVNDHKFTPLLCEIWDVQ
In the case of `Cc1cc(C#CC23CCC(OCc4c(-c5c(Cl)cncc5Cl)noc4C4CC4)(CC2)CC3)cnc1C(=O)O` [Example 388], the EC50 came out at 55 nM.

`O=C(O)c1cc(C#CC23CCC(OCc4c(-c5c(Cl)cncc5Cl)noc4C4CC4)(CC2)CC3)cc2cn[nH]c12` [Example 401] registered a half-maximal effective concentration (EC50) of 74 nM.

As to `COC(=O)c1ccc(NC(=O)C23CCC(COCc4c(-c5c(Cl)cccc5Cl)noc4C4CC4)(CC2)CC3)c(Cl)c1` [Intermediate 170A, methyl 3-chloro-4-(4-(((5-cyclopropyl-3-(2,6-dichlorophenyl)isoxazol-4-yl)methoxy)methyl)bicyclo[2.2.2]octane-1-carboxamido)benzoate], the half-maximal effective concentration (EC50) is 2400 nM.

Compound `O=C(O)c1cc(OC(F)F)c2cc(OCC34CCC(/C=C/c5c(-c6c(Cl)cncc6Cl)noc5C5CC5)(CC3)OC4)ccc2n1` [Example 472, (E)-6-((1-(2-(5-cyclopropyl-3-(3,5-dichloropyridin-4-yl)isoxazol-4-yl)vinyl)-2-oxabicyclo[2.2.2]octan-4-yl)methoxy)-4-(difluoromethoxy)quinoline-2-carboxylic acid] came in with an EC50 of 290 nM.

`O=C(O)c1cc(F)cn2c(C#CC34CCC(OCc5c(-c6c(Cl)cncc6Cl)noc5C5CC5)(CC3)CC4)cnc12` [Example 520, 3-((4-((5-cyclopropyl-3-(3,5-dichloropyridin-4-yl)isoxazol-4-yl)methoxy)bicyclo[2.2.2]octan-1-yl)ethynyl)-6-fluoroimidazo[1,2-a]pyridine-8-carboxylic acid]: a half-maximal response (EC50) required 4 nM.

Compound `COc1ccc(-c2noc(C34CCC(OCc5c(-c6c(Cl)cncc6Cl)noc5C5CC5)(CC3)CC4)n2)cc1C(=O)NS(C)(=O)=O` [Example 236, 5-(5-(4-((5-cyclopropyl-3-(3,5-dichloropyridin-4-yl)isoxazol-4-yl)methoxy)bicyclo[2.2.2]octan-1-yl)-1,2,4-oxadiazol-3-yl)-2-methoxy-N-(methylsulfonyl)benzamide] showed an EC50 of 26 nM.

`O=C(O)c1cccc(-c2noc(C34CCC(OCc5c(-c6c(Cl)cncc6Cl)noc5C5CC5)(CC3)CC4)n2)n1` [Example 247, 6-(5-(4-((5-cyclopropyl-3-(3,5-dichloropyridin-4-yl)isoxazol-4-yl)methoxy)bicyclo[2.2.2]octan-1-yl)-1,2,4-oxadiazol-3-yl)picolinic acid] gave an EC50 of 580 nM.

As for `O=C(O)c1cc(-c2noc(C34CCC(OCc5c(-c6c(Cl)cccc6Cl)noc5C5CC5)(CC3)CO4)n2)ccc1F` [Example 198], the response was half-maximal at 98 nM (EC50).

In turn, `O=C(O)c1cccc(C#CC23CCC(OCc4c(-c5c(Cl)cccc5Cl)noc4C4CC4)(CC2)CC3)c1` [Example 130, 3-((4-((5-cyclopropyl-3-(2,6-dichlorophenyl)isoxazol-4-yl)methoxy)bicyclo[2.2.2]octan-1-yl)ethynyl)benzoic acid] returned an EC50 of 68 nM.

Regarding `O=C(O)c1cc(-c2nc(C34CCC(OCc5c(-c6c(Cl)cccc6Cl)noc5C5CC5)(CC3)CC4)no2)ccn1` [Example 22, 4-(3-(4-((5-cyclopropyl-3-(2,6-dichlorophenyl)isoxazol-4-yl)methoxy)bicyclo[2.2.2]octan-1-yl)-1,2,4-oxadiazol-5-yl)picolinic acid], the concentration giving a half-maximal response (EC50) came to 210 nM.

In turn, `CC(C)c1onc(-c2ccccc2OC(F)(F)F)c1COC12CCC(c3nc(-c4ccc(C(=O)O)cc4)no3)(CC1)CC2` [Example 26] came in with an EC50 of 980 nM.

In turn, `COc1cc(C(=O)O)nc2ccc(OCC34CCC(OCc5c(-c6ccccc6C(F)(F)F)noc5C5CC5)(CC3)CC4)cc12` [Example 289] registered an EC50 of 150 nM.

As to `COc1cc(C(=O)O)cc(-c2noc(C34CCC(OCc5c(-c6c(Cl)cncc6Cl)noc5C5CC5)(CC3)CC4)n2)c1` [Example 239, 3-(5-(4-((5-cyclopropyl-3-(3,5-dichloropyridin-4-yl)isoxazol-4-yl)methoxy)bicyclo[2.2.2]octan-1-yl)-1,2,4-oxadiazol-3-yl)-5-methoxybenzoic acid], it took 79 nM to reach a half-maximal effect (EC50).

In turn, `Cn1nc(-c2nc(C34CCC(OCc5c(-c6c(Cl)cccc6Cl)noc5C5CC5)(CC3)CC4)no2)cc1C(=O)O` [Example 70, 3-(3-(4-((5-Cyclopropyl-3-(2,6-dichlorophenyl)isoxazol-4-yl)methoxy)bicyclo[2.2.2]octan-1-yl)-1,2,4-oxadiazol-5-yl)-1-methyl-1H-pyrazole-5-carboxylic acid] returned a 50% effective concentration (EC50) of 430 nM.

As to `O=C(O)c1cc(-c2noc(C34CCC(OCc5c(-c6ccccc6OC(F)(F)F)noc5C5CC5)(CC3)CC4)n2)ccn1` [Example 49], the 50% effective concentration (EC50) was 1200 nM.

The compound `O=C(O)c1cc(C#CC23CCC(OCc4c(-c5c(Cl)cncc5Cl)noc4C4CC4)(CC2)CC3)cc2[nH]ccc12` [Example 415] showed a 50% effective concentration (EC50) of 63 nM.

On to `COc1cncc(Cl)c1-c1noc(C2CC2)c1COC12CCC(COc3ccc(C)c(C(=O)O)n3)(CC1)CC2` [Example 120, 6-((4-((3-(3-chloro-5-methoxypyridin-4-yl)-5-cyclopropylisoxazol-4-yl)methoxy)bicyclo[2.2.2]octan-1-yl)methoxy)-3-methylpicolinic acid], for which it took 2300 nM to reach a half-maximal effect (EC50).

`O=C(O)c1cccc(-c2noc(C34CCC(OCc5c(-c6c(Cl)cncc6Cl)noc5C5CC5)(CC3)CC4)n2)c1` [Example 232, 3-(5-(4-((5-cyclopropyl-3-(3,5-dichloropyridin-4-yl)isoxazol-4-yl)methoxy)bicyclo[2.2.2]octan-1-yl)-1,2,4-oxadiazol-3-yl)benzoic acid] came in with a concentration for a half-maximal effect (EC50) of 100 nM.

Regarding `O=C(O)c1cccc(-c2noc(C34CCC(OCc5c(-c6c(Cl)cncc6Cl)noc5C5CC5)(CC3)CC4)n2)c1F` [Example 71, 3-(5-(4-((5-Cyclopropyl-3-(3,5-dichloropyridin-4-yl)isoxazol-4-yl)methoxy)bicyclo[2.2.2]octan-1-yl)-1,2,4-oxadiazol-3-yl)-2-fluorobenzoic acid], a half-maximal response (EC50) required 69 nM.

With `COc1cc(-c2noc(C34CCC(OCc5c(-c6c(Cl)cnn6C)noc5C5CC5)(CC3)CC4)n2)cc(C(=O)O)n1` [Example 275, 4-(5-(4-((3-(4-chloro-1-methyl-1H-pyrazol-5-yl)-5-cyclopropylisoxazol-4-yl)methoxy)bicyclo[2.2.2]octan-1-yl)-1,2,4-oxadiazol-3-yl)-6-methoxypicolinic acid], a half-maximal response (EC50) required 2500 nM.

Take `Cc1c(OCC23CCC(OCc4c(-c5c(Cl)cccc5Cl)noc4C4CC4)(CC2)CC3)cccc1C(=O)O` [Example 95, 3-((4-((5-cyclopropyl-3-(2,6-dichlorophenyl)isoxazol-4-yl)methoxy)bicyclo[2.2.2]octan-1-yl)methoxy)-2-methylbenzoic acid]: the EC50 worked out at 400 nM.

On to `O=C(O)c1cc(OC(F)F)c2cc(OCC34CCC(/C=C/c5c(-c6c(Cl)cncc6Cl)noc5C5CC5)(CC3)CO4)ccc2n1` [Example 498, (E)-6-((4-(2-(5-cyclopropyl-3-(3,5-dichloropyridin-4-yl)isoxazol-4-yl)vinyl)-2-oxabicyclo[2.2.2]octan-1-yl)methoxy)-4-(difluoromethoxy)quinoline-2-carboxylic acid], for which the midpoint of the response, the EC50, lay at 250 nM.

On to `O=C(O)Cc1ccnc(OCC23CCC(OCc4c(-c5c(Cl)cccc5Cl)noc4C4CC4)(CC2)CC3)c1` [Example 104, 2-(2-((4-((5-cyclopropyl-3-(2,6-dichlorophenyl)isoxazol-4-yl)methoxy)bicyclo[2.2.2]octan-1-yl)methoxy)pyridin-4-yl)acetic acid], for which the midpoint of the response, the EC50, lay at 210 nM.

Compound `COc1ccc(-c2noc(C34CCC(OCc5c(-c6c(Cl)cncc6Cl)noc5C5CC5)(CC3)CO4)n2)cc1C(=O)O` [Example 455, 5-(5-(4-((5-cyclopropyl-3-(3,5-dichloropyridin-4-yl)isoxazol-4-yl)methoxy)-2-oxabicyclo[2.2.2]octan-1-yl)-1,2,4-oxadiazol-3-yl)-2-methoxybenzoic acid] showed an EC50 of 290 nM.

As to `O=C(O)c1ccc(OC2CCOCC2)c2nc(C34CCC(OCc5c(-c6c(Cl)cncc6Cl)noc5C5CC5)(CC3)CC4)ccc12` [Example 414], the half-maximal effective concentration (EC50) stood at 29 nM.

As for `CC(C)Oc1cc(C(=O)O)nc2ccc(C#CC34CCC(OCc5c(-c6c(Cl)cncc6Cl)noc5C5CC5)(CC3)CC4)cc12` [Example 390], the EC50 stood at 20 nM.

Take `O=C(O)c1cccc(-c2noc(C34CCC(COCc5c(-c6ccccc6OC(F)(F)F)noc5C5CC5)(CC3)CO4)n2)c1` [Example 213]: the EC50 was found to be 1200 nM.

With `O=C(O)c1cccc(-c2noc(C34CCC(OCc5c(-c6ccccc6C(F)(F)F)noc5C5CC5)(CC3)CC4)n2)c1` [Example 25], the midpoint of the response, the EC50, lay at 300 nM.

`Clc1cccc(Cl)c1-c1noc(C2CC2)c1COC12CCC(COc3cccc(-c4nn[nH]n4)c3)(CC1)CC2` [Example 89, 4-((4-((3-(2H-tetrazol-5-yl)phenoxy)methyl)bicyclo[2.2.2]octan-1-yloxy)methyl)-5-cyclopropyl-3-(2,6-dichlorophenyl)isoxazole] displayed an EC50 of 120 nM.

`CS(=O)(=O)NC(=O)c1cc(-c2noc(C34CCC(/C=C/c5c(-c6c(Cl)cncc6Cl)noc5C5CC5)(CC3)CC4)n2)cc(C(F)(F)F)c1` [Example 440, (E)-3-(5-(4-(2-(5-cyclopropyl-3-(3,5-dichloropyridin-4-yl)isoxazol-4-yl)vinyl)bicyclo[2.2.2]octan-1-yl)-1,2,4-oxadiazol-3-yl)-N-(methylsulfonyl)-5-(trifluoromethyl)benzamide] gave a concentration for a half-maximal effect (EC50) of 400 nM.

The compound `O=C(O)c1ccc(OC2CCCC2)c2nc(C34CCC(OCc5c(-c6c(Cl)cncc6Cl)noc5C5CC5)(CC3)CC4)ccc12` [Example 408] came in with an EC50 of 10 nM.

`COc1ccc(C(=O)O)cc1-c1noc(C23CCC(COCc4c(-c5c(Cl)cncc5Cl)noc4C4CC4)(CC2)CC3)n1` [Example 487, 3-(5-(4-(((5-cyclopropyl-3-(3,5-dichloropyridin-4-yl)isoxazol-4-yl)methoxy)methyl)bicyclo[2.2.2]octan-1-yl)-1,2,4-oxadiazol-3-yl)-4-methoxybenzoic acid]: the midpoint of the response, the EC50, lay at 5400 nM.

For the compound `O=C(O)c1cc(C2CC2)c2cc(OCC34CCC(OCc5c(-c6c(Cl)cncc6Cl)noc5C5CC5)(CC3)CC4)ccc2n1` [Example 324, 4-cyclopropyl-6-((4-((5-cyclopropyl-3-(3,5-dichloropyridin-4-yl)isoxazol-4-yl)methoxy)bicyclo[2.2.2]octan-1-yl)methoxy)quinoline-2-carboxylic acid], the EC50 was 22 nM.

(Values after patent publication US10730863B2, “Bridged bicyclic compounds as farnesoid X receptor modulators” (BRISTOL-MYERS SQUIBB COMPANY, priority 2017, dated 2020).)
